Experimental data published in PMC6038183 (BMC Genomics, 2018).

Target: OppA (main ectoATPase of M. hominis PG21) (Metamycoplasma hominis, UniProt D1J7T8)
Details: intact cells of parental strain PG21 (whole-cell ectoATPase activity, other ATPases not excluded); pH 7.5, 37 °C, 4 h, 0-3 mM ATP

OppA (main ectoATPase of M. hominis PG21), sequence (D1J7T8 entry or part of it): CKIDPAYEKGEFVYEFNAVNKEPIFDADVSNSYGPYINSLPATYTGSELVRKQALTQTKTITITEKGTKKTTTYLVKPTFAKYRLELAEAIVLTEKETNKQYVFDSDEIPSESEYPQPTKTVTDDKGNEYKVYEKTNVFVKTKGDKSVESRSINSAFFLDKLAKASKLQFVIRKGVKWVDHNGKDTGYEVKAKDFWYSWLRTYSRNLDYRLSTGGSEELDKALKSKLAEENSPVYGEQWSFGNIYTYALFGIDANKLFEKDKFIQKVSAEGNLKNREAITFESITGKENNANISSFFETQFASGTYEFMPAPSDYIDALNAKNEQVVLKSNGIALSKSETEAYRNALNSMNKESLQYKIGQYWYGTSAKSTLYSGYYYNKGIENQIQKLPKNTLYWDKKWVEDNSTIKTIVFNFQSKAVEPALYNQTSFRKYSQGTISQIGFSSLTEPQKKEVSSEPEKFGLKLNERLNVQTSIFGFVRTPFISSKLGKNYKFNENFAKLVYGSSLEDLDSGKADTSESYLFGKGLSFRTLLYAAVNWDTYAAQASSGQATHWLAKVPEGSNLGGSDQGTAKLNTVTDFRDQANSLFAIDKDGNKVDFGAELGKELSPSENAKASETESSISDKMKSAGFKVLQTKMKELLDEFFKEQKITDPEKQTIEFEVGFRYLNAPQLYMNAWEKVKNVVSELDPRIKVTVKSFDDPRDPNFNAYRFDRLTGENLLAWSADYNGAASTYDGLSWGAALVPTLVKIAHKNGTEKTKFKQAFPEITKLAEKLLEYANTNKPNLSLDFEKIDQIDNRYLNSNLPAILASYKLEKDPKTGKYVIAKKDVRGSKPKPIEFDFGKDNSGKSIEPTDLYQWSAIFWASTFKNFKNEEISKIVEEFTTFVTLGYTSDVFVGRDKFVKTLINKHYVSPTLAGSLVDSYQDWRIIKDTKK

Nc1ncnc2c1ncn2[C@@H]1O[C@H](COP(=O)(O)OP(=O)(O)OP(=O)(O)O)[C@@H](O)[C@H]1O [ATP]
Km: the parental PG21 strain were tested for ATPase activity
